Experimental findings from PubChem BioAssay AID179 (DTP/NCI, 2004) are described below.

Each structure is given as a SMILES string. The source made the active and inactive calls.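 The calls were made as follows: active = compounds giving half or more protection of infected cells from virus-caused growth loss, again on retest; inactive = the rest.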 A value given as a limit tells only on which side of the number the result lay.

The test system of the assay is CEM cells HIV-1 protection, formazan growth assay. The experiment in a line: NCI AIDS Antiviral Assay. As to conditions: for IC50: measured here: growth of uninfected CEM cells. The essentials:
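Human CEM cells, uninfected and HIV-1-infected, exposed to five drug concentrations; growth measured by soluble formazan assay and scored as percent protection from infection, with protecting compounds retested.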

For orientation: EC50 means the concentration at which the effect is half-maximal. By IC50 is commonly meant the concentration that inhibits the measured activity by half. With `CN1C(=O)[C@@H]2[C@@H]3c4ccccc4N[C@@H]3c3[nH]c4ccccc4c3[C@@H]2C1=O`, the EC50 is above 200 µM and the IC50 was 81.3 µM.

In the case of `CCCCCC/C=C\CCCCCCCCCc1cc(O)cc(OC)c1O`, the EC50 is above 13.8 µM and the IC50 was determined as 5.01 µM.

In the case of `CCCCNC(=S)Nc1nc(C(=O)NNC(=S)Nc2ccccc2)cs1`, the EC50 is 58.9 µM and the IC50 was above 200 µM.

As to `CCOC(=O)[C@@]12C[C@](/C=C/OC)(O[Si](C)(C)C)[C@@]13c1cc(OC)c(OC)cc1CCN3C(=O)C2=O`, the EC50 is above 200 µM and the IC50 was above 200 µM.

`C[P+]1(CCc2ccc(Cl)cc2)CC=CC1`: the result was inactive.

Take `O=C1Nc2ccccc2Nc2nc3cccccc-3c21`: the EC50 is above 100 µM and the IC50 was above 100 µM.

As for `CCCCCCCCCCCCCCCCCCNC(=O)c1ccccc1[Se][Se]c1ccccc1C(=O)NCCCCCCCCCCCCCCCCCC`, the EC50 was above 0.794 µM and the concentration for half-maximal inhibition (IC50) was above 0.794 µM.

Consider `Fc1ccc(NC(=S)Nc2ccccn2)cc1`, for which the EC50 was above 158 µM and the 50% inhibitory concentration (IC50) is 129 µM.

For `CN1C(=O)C(O)CC1c1ccccc1C(F)(F)F` (stereo not drawn), the EC50 was above 200 µM and the IC50 was above 200 µM.

Regarding `O=C1c2ccccc2C2(O)N(c3ccccc3)C(=S)N(c3ccccc3)C12O` (stereo not drawn), the EC50 is above 646 µM and the IC50 is 316 µM.

As for `Cc1cc2c(c(C(=O)NCC(=O)O)c1)Oc1c(cc(C)cc1C(=O)NCC(=O)O)S2`, the EC50 was above 200 µM and the 50% inhibitory concentration (IC50) was above 200 µM.

For the compound `Cc1cccc2c(=O)c3cccc([C@H](C)C(=O)O)c3oc12`, the EC50 is above 200 µM and the IC50 is above 200 µM.

As to `CC(C)(C)OC(=O)N(CCCN)CCCCN`, the EC50 is above 200 µM.

Turning to `COc1ccc2[nH]c3c(c2c1)CCc1c(OC)cccc1-3`, the EC50 is above 200 µM and the IC50 worked out at 178 µM.

With `OC(C/C(=N\N1CCCCC1)c1cccs1)(C(F)(F)F)C(F)(F)F`, the EC50 was above 200 µM and the IC50 was 145 µM.

Take `CCc1cccc(CC)c1NC(=S)N/C=C(\C#N)S(=O)(=O)c1ccc(C)cc1`: the EC50 was above 200 µM and the IC50 was above 200 µM.

Consider `O=C1OC2C3Cc4ccccc4N2C1C3` (stereo not drawn), for which the EC50 is above 646 µM and the IC50 came to 363 µM.

Turning to `N#CCCC1(CCC#N)CCCCCCCCC(CCC#N)(CCC#N)C(=O)C1=O`, the EC50 is above 200 µM and the IC50 is above 200 µM.

With `N#Cc1c(N)c(C(=O)O)nn(-c2cccc(C(F)(F)F)c2)c1=O`, the outcome was inactive.

For the compound `C[C@@H]1OC(=O)N2CCCC(=C3SCCCS3)C12` (stereo partly drawn), the result was inactive.

`CC1(C)CC2C(/C1=N/O)C1(C)CCCC2(C)C1O` (stereo not drawn): the EC50 is above 200 µM and the IC50 is above 200 µM.

As for `O=C([CH-]C(=O)c1ccccc1)c1ccccc1.O=C([CH-]C(=O)c1ccccc1)c1ccccc1.[CH2-]CCC.[CH2-]CCC.[Sn+4]`, the EC50 was above 7.76 µM and the IC50 stood at 0.427 µM.

For the compound `NS(=O)(=O)c1nnc(NSc2ccc([N+](=O)[O-])cc2)s1`, the EC50 is above 200 µM and the IC50 worked out at 46.8 µM.

On to `Oc1ccc([C@H]2c3c(O)cc(O)cc3C3c4c(cc(O)cc4[C@@H]2[C@H]2c4cc(O)cc5c4C(c4cc(O)cc(O)c4[C@@H]2c2ccc(O)cc2)[C@@H](c2ccc(O)cc2)O5)O[C@@H]3c2ccc(O)cc2)cc1` (stereo partly drawn), for which the EC50 was above 100 µM and the IC50 stood at 13.8 µM.

On to `CC1(C(=O)O)CCCC2(C)C3=CC(=O)CCC3=CCC12` (stereo not drawn), for which the EC50 was above 200 µM and the half-inhibitory concentration (IC50) came to 186 µM.

Turning to `Cc1ccc(/C=C2\N=C(N3CCOCC3)NC2=O)cc1`, the EC50 is above 200 µM and the IC50 was above 200 µM.

In the case of `CC1(C)C(OC(=O)c2ccccc2)C[C@]23CCC[C@](C)(C[C@@H](O)C12)C3` (stereo partly drawn), the EC50 is above 200 µM and the IC50 came to 24 µM.

`COC(=O)C1Cc2c(OC)ccc(OC)c2CC(C(=O)OC)C1=O` (stereo not drawn): the EC50 was above 200 µM and the IC50 turned out to be 182 µM.

In the case of `N#CCCC1(CCC#N)CCCCCCCCC(CCC#N)(CCC#N)C(O)C1O` (stereo not drawn), the EC50 is above 200 µM and the IC50 is above 200 µM.

`C=CCn1cnc2c(=O)[nH]c(Nc3ccccc3)nc21`: the EC50 is above 151 µM and the IC50 is above 151 µM.

As to `COC(=O)C1CC2C=CC=CC(=O)C2(C)C1` (stereo not drawn), the EC50 is above 251 µM and the 50% inhibitory concentration (IC50) stood at 33.1 µM.

`CNc1ccccc1S(=O)(=O)c1ccccc1Cl`: the half-maximal effective concentration (EC50) was above 63.1 µM and the IC50 stood at 40.7 µM.

Take `CC(=O)Nc1ccc(C(=O)NN2C(=O)CSC2c2ccccc2)cc1` (stereo not drawn): the EC50 is above 72.4 µM and the IC50 was above 72.4 µM.

In the case of `COc1ccc(C2C3C(=O)OCCOC(=O)C3C2c2ccc(OC)c(OC)c2)cc1OC` (stereo not drawn), the EC50 is above 91.2 µM and the half-maximal inhibitory concentration (IC50) turned out to be 83.2 µM.

Consider `CC(=O)Nc1c(C(=N)C#N)ncn1CCO`, for which the EC50 was above 200 µM and the IC50 was above 200 µM.

`O=C1c2ccccc2C(=O)C2(C(c3ccccc3)c3ccccc3)N=NCC12` (stereo not drawn): the EC50 is above 200 µM and the IC50 came out at 105 µM.

For the compound `NC(N)=Nc1ccc(/C=C2\C=Cc3ccccc32)cc1`, the EC50 is above 27.5 µM and the IC50 amounted to 10.5 µM.

With `CC(C)=CC(=O)N(C)C1C2CN3CCC(O2)C13` (stereo not drawn), the outcome was inactive.

As to `O=C(Cc1nc2ccccc2o1)C(=O)Nc1ccc(Cl)cc1Cl`, the EC50 was above 7.76 µM and the half-maximal inhibitory concentration (IC50) was above 7.76 µM.

With `CC1=NN2C(=N)/C(=C/c3ccco3)C(=O)N=C2S1`, the EC50 is above 200 µM and the IC50 is above 200 µM.

Turning to `Clc1ccc2c(c1)[nH]c1c2nc2sccn21`, the result was inactive.

As to `Cc1ccc(S(=O)(=O)NNCNC(=O)c2ccccc2)cc1`, the result was inactive.

As for `CN(C)c1ccc(/C=c2\sc3nnc(-c4ccco4)n3c2=O)cc1`, the EC50 is above 11.2 µM and the IC50 is above 11.2 µM.

For `C=CCN1CCC2(CC1)NC(=O)c1ccccc1O2`, the EC50 is above 200 µM and the IC50 is above 200 µM.

As for `CCOC(=O)/C(C#N)=C/c1ccc(Cl)cc1`, the EC50 was above 110 µM and the half-inhibitory concentration (IC50) was above 110 µM.

With `C=C(CCC(Cl)[C@@H]1COC(/C=C/C)O1)[Si](C)(C)C` (stereo partly drawn), the EC50 was above 123 µM and the half-inhibitory concentration (IC50) was above 123 µM.

Turning to `CN1C(=O)CCCCCCCCCCSc2ccccc21`, the EC50 was above 200 µM and the IC50 is 40.7 µM.

On to `CCC(CCNC(=O)c1ccccc1)(CCNC(=O)c1ccccc1)[N+](=O)[O-]`, for which the EC50 is above 200 µM and the IC50 was above 200 µM.

For `Nc1nc[n+](Cc2ccccc2)c2ncn(Cc3ccccc3)c12`, the EC50 is above 631 µM and the IC50 is 95.5 µM.

Consider `Clc1ccc(SSc2ccccc2)cc1`, for which the result was inactive.

Take `CC1(C)NC(=O)N(C(C)(C)C(=O)O)C1=O`: the EC50 was above 200 µM and the half-inhibitory concentration (IC50) is above 200 µM.

Turning to `CC(C)=Nn1cnc(C(=N)C#N)c1N`, the EC50 is above 200 µM and the IC50 was above 200 µM.

Take `C=C1CCC(=O)NC1=O`: the outcome was inactive.

On to `CCCCCCCC(=O)[O-].CCCCCCCC(=O)[O-].N.N.N.N.[Co+3].[O-][Cl+3]([O-])([O-])[O-]`, for which the outcome was inactive.
